Results reported in PubChem BioAssay (NCI).
Where “and” joins values, the source holds several entries; their conditions need not be identical. Equal entries are not always repeated.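 Interpolation was linear, between the two tested concentrations surrounding the appropriate level; five concentrations were tested over 48 hours in 96-well plates. At the GI50, growth is halved. TGI denotes the concentration required for complete inhibition of growth.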

Key:
Test in all cases: NCI anticancer screen, dose series, 48 h
[1] = system: ACHN renal
[2] = system: A498 renal
[3] = system: NCI-H460 lung
[4] = system: K-562 leukemia
[5] = system: DU-145 prostate
[6] = system: SF-539 CNS
[7] = system: A549 NSCLC
[8] = system: PC-3 prostate
[9] = system: SR leukemia
[10] = system: SF-295 CNS

| Compound | GI50 [1] | TGI [1] | TGI [2] | GI50 [3] | TGI [3] | GI50 [4] | TGI [4] | GI50 [5] | TGI [5] | GI50 [6] | TGI [6] | GI50 [7] | TGI [7] | GI50 [8] | TGI [8] | GI50 [9] | TGI [9] | GI50 [10] | TGI [10] | GI50 [2] |
| --- | --- | --- | --- | --- | --- | --- | --- | --- | --- | --- | --- | --- | --- | --- | --- | --- | --- | --- | --- | --- |
| O=C(NC1CCN(Cc2ccccc2)CC1)c1cc(-c2cccnc2)nc2ccc(Cl)cc12 | 2.36 µM | 6.54 µM | 5.49 µM | 4.24 µM | 21.7 µM | 3.43 µM | 76.8 µM | 8.78 µM | > 100 µM | 11.9 µM | 24.2 µM | 4.61 µM | 44.8 µM | 6.16 µM | > 100 µM | 2.71 µM | 12.9 µM | 10.6 µM | 26 µM |  |
| COC(=O)c1cc(-c2ccc3ccccc3c2)[nH]c(=O)c1C#N |  | > 100 µM | > 100 µM |  | > 100 µM |  |  |  | > 100 µM |  | > 100 µM |  | > 100 µM |  | > 100 µM |  | > 100 µM |  | > 100 µM |  |
| COc1ccc(-c2nn(-c3cccc(Cl)c3)cc2/C=C2\NC(=S)N(c3ccc(Cl)cc3)C2=O)cc1 | 3.72 µM | > 25 µM | 8.56 µM | 4.7 µM | 18.4 µM | 3.12 µM | 7.92 µM | 8.75 µM | > 25 µM | 8.22 µM | > 25 µM | 3.35 µM | 9.73 µM | 5.37 µM | 21.6 µM | 3.59 µM | 7.29 µM | 4.63 µM | 12 µM | 3.51 µM |
| Cc1cc2c(cc1Cl)SC(N(c1ccccc1Cl)S(=O)(=O)c1ccc(Br)s1)=NS2(=O)=O | 22.4 µM | 84.7 µM | 42 µM | 13.9 µM | 36.3 µM | 18.7 µM | 54.6 µM | 14.5 µM | 33 µM | 9.92 µM | 23.7 µM | 25.7 µM | > 100 µM | 12.5 µM | 29.7 µM | 23.8 µM | 83.4 µM | 30.7 µM | > 100 µM | 11.3 µM |
| CN(C)c1ccc(/C=C/C(=O)c2ccc(Nc3nc(Nc4ccc(F)cc4)nc(Nc4ccc(F)cc4)n3)cc2)cc1 | 27.4 µM | > 100 µM | 30.8 µM | 22 µM | > 100 µM | 12.7 µM | > 100 µM | 25.1 µM | 91.6 µM | 19 µM | 44.6 µM | 12.8 µM | 34.2 µM | 6.56 µM | 80.2 µM | 7.12 µM | > 100 µM | 15 µM | 41.3 µM | 13 µM |
| O=CC(OC(=O)c1ccccc1)C(OC(=O)c1ccccc1)C(COC(c1ccccc1)(c1ccccc1)c1ccccc1)OC(=O)c1ccccc1 (centres undefined) | 11.4 µM | 24 µM | 29.7 µM | 17.1 µM | 37.8 µM | 8.09 µM | 27.4 µM | 15.3 µM | 28.6 µM | 5.28 µM | 19.4 µM | 22.1 µM | 61.7 µM | 9.64 µM | 24.7 µM | 1.3 µM | 4.03 µM | 23.8 µM | 73.5 µM | 15.5 µM |
| Cc1cc(S(=O)(=O)/N=C(\N)Nc2cccc(O)c2)c(SCc2ccccc2)cc1Cl | 18.2 µM | 39.4 µM | 35.7 µM |  |  | 8.28 µM | > 100 µM | 24.4 µM | 81.8 µM | 18 µM | 38.8 µM | 14.8 µM | > 100 µM | 12.1 µM | > 100 µM | 16.2 µM | > 100 µM | 16.7 µM | 51.2 µM | 17.8 µM |
| C[C@@H]1CC[C@H]2[C@@H](C)C(O)O[C@@H]3O[C@]4(C)CC[C@@H]1[C@]32OO4 (some centres undefined) | 1.26 µM | 13 µM | > 96.6 µM | 1.33 µM | 15 µM | 0.337 µM | 4.57 µM | 5.27 µM | 17.4 µM | 0.868 µM | 14.2 µM | 1.74 µM | 13.5 µM | 0.0662 µM | > 43.3 µM | 0.199 µM | 0.898 µM | 0.625 µM | 35.4 µM | 2.89 µM |
| CCOC(=O)/C(=C/CC/C(C)=C/CC/C(C)=C/CCc1ccoc1)CC(=O)N1CCCCC1 | 2.93 µM | 10.3 µM | 3.08 µM | 1.82 µM | 3.7 µM | 3.91 µM | 96 µM | 7.76 µM | 43.4 µM | 7.9 µM | 20.9 µM | 1.92 µM | 4.14 µM | 3.1 µM | 17.9 µM | 3.11 µM | 16 µM | 1.55 µM | 5.08 µM | 1.27 µM |
| Cc1cccc2c(C3=C(c4cn(C)c5ccccc45)C(=O)NC3=O)cn(C)c12 | 13.1 µM | > 25 µM | > 25 µM | > 21.8 µM | > 25 µM | > 19.7 µM | > 25 µM | > 25 µM | > 25 µM | 19.1 µM | > 25 µM | > 25 µM | > 25 µM | 18.9 µM | > 25 µM | 4.88 µM | > 25 µM | > 24 µM | > 25 µM | > 25 µM |
| C[C@@H](O)[C@@H](C)Oc1nc(Nc2ccc(S(=N)(=O)C3CC3)cc2)ncc1C(F)(F)F (some centres undefined) | 0.0261 µM | > 100 µM | 0.0461 µM | 0.0303 µM | 11.5 µM | 0.0425 µM | > 100 µM | 0.0258 µM | > 61.8 µM | 0.0162 µM | 0.0384 µM | 0.0298 µM | 15.6 µM | 0.0401 µM | 0.443 µM | < 0.0122 µM | 0.0475 µM | 0.0312 µM | > 55.3 µM | 0.021 µM |
| Nc1nc(=O)n(C2CC(O)C(CO)O2)cc1F (centres undefined) | 0.00802 µM and < 0.0108 µM | > 100 µM | > 100 µM | 0.00231 µM | > 100 µM | > 100 µM | > 100 µM |  | > 100 µM | 0.00418 µM | < 0.0448 µM | 0.0049 µM | > 100 µM | 1.47 µM | > 100 µM | > 100 µM | > 100 µM |  | > 100 µM | 0.046 µM |
| O=C(O)C1C2C=CC(O2)C1C(=O)NCc1cccnc1 (centres undefined) |  | > 100 µM | > 100 µM |  | > 100 µM |  | > 100 µM |  | > 100 µM |  | > 100 µM |  | > 100 µM |  | > 100 µM |  | > 100 µM |  | > 100 µM |  |
